# Reference: patent US20220218736A1, “NEW THERAPY” (INDEX PHARMACEUTICALS AB, priority 2018, published 2022)
# Oligonucleotides are written 5' to 3', each unit as a sugar letter and its base; * is a phosphorothioate linkage, no mark a phosphodiester; rarer units and linkages stand in square brackets, end groups in braces. Plain capitals give the bases only. d = 2'-deoxy (DNA)
# How the values were obtained:
# [1] = system: patient with ulcerative colitis refractory to steroids and immunosuppressive therapies; assay: Compassionate use program, patient p12; colitis activity index (CAI) course; type: in vivo, human
# Text: This example relates to unpublished experimental data that was collected as part of a compassionate use program. A diagnosis of ulcerative colitis was established based on clinical, endoscopic and histological features. Written consent was received for the patient and the treatment approved by the relevant local ethics committee.
# The patient was a person who was first diagnosed with ulcerative colitis 5 years previously and who had become refractory to steroids and immunosuppressive therapies (GCS, infliximab and natural IFN-β). In the form of an experimental add-on therapy, relapses were treated for 4 years with natural Interferon-beta (Fiblaferon). […] A severe relapse in January 2010 was treated with high doses of steroids in combination with azathioprine and 5-ASA without success. […] The treatment with a high dose of steroid in combination with Infliximab had some effect in reducing the CAI score from 14 to 9 in March 2010. However, the subject was still in a very active state of the disease. […]
# The patient received 3 doses of 30 mg cobitolimod diluted in 50 mL of sterile water at 4 week intervals as an add on to current therapies. Application of drug was performed during colonoscopy with the aid of a spraying catheter inserted through the colonoscopies biopsy channel and delivered approximately to the upper portion of the descending colon or to the transverse region.
# Depicted is the colitis activity index [CAI] against the time in months. […] 2011 when the treating physician last contacted all the patients to follow-up on the treatments.
# [2] = system: patients with moderate-to-severe active UC; assay: Randomized, double-blind, placebo-controlled clinical trial of cobitolimod; symptomatic remission; type: in vivo, human
# Method: In this randomized, double-blind, placebo-controlled trial, 131 patients with moderate-to-severe active UC were randomized to receive two single doses of the oligonucleotide cobitolimod [30 mg] or placebo administered topically during lower GI endoscopy at baseline and Week 4. The primary endpoint was clinical remission, defined as Clinical Activity (Rachmilewitz) Index [CAI]≤4, at Week 12. Secondary endpoints included mucosal healing and symptomatic remission of key patient-reported outcomes [absence of blood in stool and weekly stool frequency <35].
# Eligible patients were adults with moderate to severely active ulcerative colitis with a Clinical Activity Index [CAI] of ≥9 and an endoscopic Mayo score of ≥2, despite treatment with glucocorticosteroids [GCS] [prednisolone] equivalent ≥10 mg/day] for ≥2 weeks prior to inclusion, and previously having failed or been intolerant to treatment with mesalazine ≥2.4 g/day for ≥4 weeks, GCS with at least 0.75 mg/kg as a starting dose, azathioprine or mercaptopurine for ≥3 months, and/or one adequate treatment course of a TNF-α inhibitor. Patients may have tried treatment with cyclosporine or tacrolimus before the trial. Four patients in the placebo group [9.3%] and 5 patients in the cobitolimod group [6.2%] had used cyclosporine prior to the study start, but not in the study.
# During the trial, patients could be taking sulfasalazine, aminosalicylates, or thiopurines, and should be on oral GCS at stable doses. Concurrent therapies with cyclosporine, tacrolimus or TNF-α inhibitors during the trial or in the 4 weeks before enrolment, or antibiotics or non-steroidal anti-inflammatory drugs [NSAIDs] in the 2 weeks before enrolment were not permitted.
# Eligible patients were randomized in a 2:1 ratio to receive administration of cobitolimod via endoscopy [30 mg] at Week 0 and 4, or matching placebo diluted in 50 mL of sterile water after adequate bowel cleaning for stool content. The application was done proximally to the site of mucosal inflammation, or in the transverse section of the colon in the event of extensive colitis, using a spray catheter during endoscopy. Patients were asked to remain recumbent for 2 h after administration. Patients were followed up with visits after 1, 4, 8, 12, 22, and 52 weeks. At Weeks 0, 4, and 12, patients underwent endoscopic evaluation and biopsies were taken from the most inflamed mucosal area. ICON [Texas, USA] produced the randomization code by a computer-generated procedure, which used the method of randomly permuted blocks. Oral GCS treatment was mandatory at a stable daily dose of >10 mg initiated at least 2 weeks prior to inclusion. Steroid tapering was done to a standard tapering schedule according to European Crohn's and Colitis Organisation [ECCO] guidelines when the patient had reached clinical remission, the earliest at Week 12.
# The primary endpoint was induction of clinical remission at Week 12, defined as a CAI score of ≤4. […] Secondary endpoints included mucosal healing [endoscopic Mayo sub-score ≤1, endoscopies not centrally read]; clinical remission at Weeks 1, 4, 8, 22 and 52; clinical remission and mucosal healing; symptomatic remission [defined as absence of blood in stool and weekly stool frequency of <35]; histological Geboes score at Week 4 and 12 as assessed by a single trial histopathologist; time to colectomy; and quality of life based on the inflammatory bowel disease questionnaire [IBDQ] and the 36-item short-form survey [SF36] score. Post hoc, the combined score for subjects who achieved both symptomatic remission and mucosal healing was defined.
# [3] = system: chronic DSS-induced colitis; assay: Chronic DSS-induced mouse model of colitis; colon length and weight/length ratio; type: in vivo, C57BL/6 mice; conditions: Day 30; for colon-shortening effects of DSS (colon length): Days 4-28 every 4 days
# Text: The objective of this study was to test the efficacy of cobitolimod as a maintenance therapy in the chronic DSS-induced mouse model of colitis.
# 37 male C57BL/6 mice were enrolled in the chronic DSS-induced colitis study and housed for a stabilization period of 5 days prior to the study. All animals were housed in HEPA-ventilated cages with sani-chips bedding. Domes and sterile cotton scratch pads were provided for enrichment. Fluorescent lighting was provided on a 12-hour cycle. Temperature and humidity were monitored and recorded daily and maintained to 20-23° C. temperature, and 30-70% relative humidity. 2018S 18% protein rodent maintenance diet was provided ad libitum.
# Cobitolimod was diluted in saline either to 125 μg/100μ1 (1.25 μg/μl, dose 1) or 500 μg/100 μl (5 μg/μl, dose 2) in the beginning of the experiment. The solution was aliquoted and kept at 4° C. for the duration of the experiment. At each administration day 100 μl was administered to the mice rectally. FTY-720 (S1P1 receptor inhibitor) was dissolved in dH2O and served as positive control. For a dose of 1 mg/kg, using an average body weight of 30 grams, the compound was prepared and 100 μL orally dosed daily to each animal.
# 9 week old mice received 2% DSS dissolved into autoclaved water ad libitum (Group 2-5, n=8 each per group) for 5 days, and were switched to autoclaved drinking water for the next five days. This cycle was repeated, alternating between DSS treatment and autoclaved water, every five days for a duration of 30 days in total. During each 5-Day DSS treatment phase, fresh 2% DSS was provided on the third day of the five-day cycle. Group 1 (n=5) served as a control (naïve mice) that received only autoclaved water ad libitum throughout the study. On Day 4, mice in Group 3 (n=8) were orally dosed with FTY-720 as positive control (Group 3, n=8) and continued daily dose until end of the study. Also starting on Study Day 4, animals were dosed with Vehicle (Group 2, […]), or with two different doses of cobitolimod (Group 4 and Group 5, n=8 per group) intrarectally. […] Groups 2, 4, and 5 were dosed again on Days 8, 12, 16, 20, 24, and 28.
# Body weight, stool consistency, stool blood, body condition score, and physical health were recorded on dosing days, and two days after each dosing day from at Day 0 through termination on Study Day 30. […] Animals that lost greater than 20% of their pre-treatment body weight were monitored and fed diet/hydro gel for 72 hrs. No animals were terminated due to prolonged body weight loss, or signs of pain and distress due to disease.
# The study was terminated on Day 30, and necropsy was performed on all animals. Spleens were weighed and then discarded. Colon length and weight was recorded, and the weight/length ratio calculated for each animal. […]
# [4] = second multi-dose regime, until March 2011
substance,measurement,setting,value
Infliximab: TNF-α inhibitor approved for the treatment of moderate to severe ulcerative colitis [reference compound],CAI score after treatment,"[1]; high dose of steroid in combination with Infliximab, reduced from 14, March 2010",9
same,adverse event after treatment,"[1]; one dose at the end of January, event in February 2010",severe salmonellosis with septicemia
5′-G*G*A*ACAGTTCGTCCAT*G*G*C-3′ (SEQ ID NO:1) (DNA dG*dG*dA*dAdCdAdGdTdTdCdGdTdCdCdAdT*dG*dG*dC) [cobitolimod],"delta between active drug and placebo, symptomatic remission",[2]; week 4,18.1%
same,percentage of patients in symptomatic remission,"[2]; week 4, 30 mg at week 0, topically during endoscopy",32.1%
same,"delta between active drug and placebo, symptomatic remission",[2]; week 8,16.8%
same,percentage of patients in symptomatic remission,"[2]; week 8, 30 mg at weeks 0 and 4",28.4%
same,decrease in percentage of patients in remission,[2]; week 8 as compared to week 4,3.7%
same,"delta between active drug and placebo, symptomatic remission",[2]; week 12,11.8%
same,percentage of patients in symptomatic remission,"[2]; week 12, 30 mg at weeks 0 and 4, no dose at week 8",23.5%
same,decrease in percentage of patients in remission,[2]; week 12 as compared to week 8,4.9%
same,time patient kept in remission by repeat dosing,"[1]; first multi-dose regime (May, June and July)",3 months
same,time complete clinical remission was further maintained,"[1]; first multi-dose regime, after week 4, with last dose and steroid tapering",two
same,drop in the CAI score,"[1]; one week after first 30 mg dose, add-on to current therapies",4 points
same,time to clinical remission,[1]; second multi-dose regime started 25 Aug. 2010,≤ 4 weeks
same,time complete clinical remission was maintained,[1]; [4],5 months
same,time patient kept in remission by repeat dosing,[1]; [4],over five
same,remission status,"[1]; week 4 of first multi-dose regime, with continued steroid tapering",complete remission
same,remission status,[1]; week 8 of second multi-dose regime,complete clinical remission
same,colon-shortening effects of DSS (colon length),[3]; 125 μg intrarectally,significantly reduced
same,colonic weight/length ratio,[3]; 125 μg intrarectally,decreased
same,colon-shortening effects of DSS (colon length),[3]; 500 μg intrarectally,reduced
same,colonic weight/length ratio,[3]; 500 μg intrarectally,decreased
